# Data: ChEMBL document CHEMBL1143799, “Synthesis and primary cytotoxicity evaluation of new imidazo[2,1-b]thiazole derivatives” (2007)
# What was measured:
# Type in all cases: functional
# [1] = test system: U-251; experiment: Growth inhibition human U251 of cells after 48 hrs by SRB protein assay; conditions: U-251, 48 h
# [2] = test system: DU-145; experiment: Growth inhibition of human DU145 cells after 48 hrs by SRB protein assay; conditions: DU-145, 48 h
# [3] = test system: HCC 2998; experiment: Growth inhibition of human HCC2998 cells after 48 hrs by SRB protein assay; conditions: HCC 2998, 48 h
# [4] = test system: KM12; experiment: Growth inhibition of human KM12 cells after 48 hrs by SRB protein assay; conditions: KM12, 48 h
# [5] = test system: CCRF-CEM; experiment: Growth inhibition of human CCRF-CEM cells after 48 hrs by SRB protein assay
# [6] = test system: SNB-19; experiment: Growth inhibition of human SNB19 cells after 48 hrs by SRB protein assay; conditions: SNB-19, 48 h
# [7] = test system: T47D; experiment: Growth inhibition of human T47D cells after 48 hrs by SRB protein assay
# [8] = test system: RPMI-8226; experiment: Growth inhibition of human RPMI8226 cells after 48 hrs by SRB protein assay; conditions: RPMI-8226, 48 h
# [9] = test system: SK-OV-3; experiment: Growth inhibition of human SK-OV-3 cells after 48 hrs by SRB protein assay; conditions: SK-OV-3, 48 h
# [10] = test system: MCF7; experiment: Growth inhibition of human MCF7 cells after 48 hrs by SRB protein assay; conditions: MCF7, 48 h
# [11] = test system: OVCAR-5; experiment: Growth inhibition of human OVCAR5 cells after 48 hrs by SRB protein assay; conditions: OVCAR-5, 48 h
# [12] = test system: RXF 393; experiment: Growth inhibition of human RXF393 cells after 48 hrs by SRB protein assay; conditions: RXF 393, 48 h, read-out: Log TGI (converted)
# [13] = test system: M14; experiment: Growth inhibition of human M14 cells after 48 hrs by SRB protein assay; conditions: M14, 48 h
# [14] = test system: CAKI-1; experiment: Growth inhibition of human CAKI1 cells after 48 hrs by SRB protein assay; conditions: CAKI-1, 48 h
# [15] = test system: MOLT-4; experiment: Growth inhibition of human MOLT4 cells after 48 hrs by SRB protein assay; conditions: MOLT-4, 48 h
# [16] = test system: SF-295; experiment: Growth inhibition of human SF295 cells after 48 hrs by SRB protein assay; conditions: SF-295, 48 h
# [17] = test system: NCI-H322M; experiment: Growth inhibition of human NCI-H322M cells after 48 hrs by SRB protein assay
# [18] = test system: OVCAR-8; experiment: Growth inhibition of human OVCAR8 cells after 48 hrs by SRB protein assay; conditions: OVCAR-8, 48 h
# [19] = test system: UO-31; experiment: Growth inhibition of human UO31 cells after 48 hrs by SRB protein assay; conditions: UO-31, 48 h
# [20] = test system: SN12C; experiment: Growth inhibition of human SN12C cells after 48 hrs by SRB protein assay
# [21] = test system: SK-MEL-28; experiment: Growth inhibition of human SK-MEL-28 cells after 48 hrs by SRB protein assay; conditions: SK-MEL-28, 48 h
# [22] = test system: UACC-257; experiment: Growth inhibition of human UACC257 cells after 48 hrs by SRB protein assay; conditions: UACC-257, 48 h
# [23] = test system: EKVX; experiment: Growth inhibition of human EKVX cells after 48 hrs by SRB protein assay
# [24] = test system: COLO 205; experiment: Growth inhibition of human COLO205 cells after 48 hrs by SRB protein assay; conditions: COLO 205, 48 h
# [25] = test system: NCI-H23; experiment: Growth inhibition of human NCI-H23 cells after 48 hrs by SRB protein assay; conditions: NCI-H23, 48 h
# [26] = test system: NCI-H522; experiment: Growth inhibition of human NCI-H522 cells after 48 hrs by SRB protein assay; conditions: NCI-H522, 48 h
# [27] = test system: A549; experiment: Growth inhibition of human A549 cells after 48 hrs by SRB protein assay; conditions: A549, 48 h
# [28] = test system: SF-539; experiment: Growth inhibition of human SF539 cells after 48 hrs by SRB protein assay; conditions: SF-539, 48 h
# [29] = test system: PC-3; experiment: Growth inhibition of human PC3 cells after 48 hrs by SRB protein assay; conditions: PC-3, 48 h
# [30] = test system: NCI-H460; experiment: Growth inhibition of human NCI-H460 cells after 48 hrs by SRB protein assay; conditions: NCI-H460, 48 h
# [31] = test system: SK-MEL-5; experiment: Growth inhibition of human SK-MEL-5 cells after 48 hrs by SRB protein assay; conditions: SK-MEL-5, 48 h
# [32] = test system: SNB-75; experiment: Growth inhibition of human SNB75 cells after 48 hrs by SRB protein assay; conditions: SNB-75, 48 h
# [33] = test system: UACC-62; experiment: Growth inhibition of human UACC62 cells after 48 hrs by SRB protein assay; conditions: UACC-62, 48 h
# [34] = Growth inhibition of human 786O cells after 48 hrs by SRB protein assay; conditions: 786-0, 48 h
# [35] = test system: MDA-MB-231; experiment: Growth inhibition of MDA-MB-231 cells after 48 hrs by SRB protein assay; conditions: Homo sapiens, MDA-MB-231, 48 h
# [36] = test system: HOP-92; experiment: Growth inhibition of human HOP92 cells after 48 hrs by SRB protein assay; conditions: HOP-92, 48 h
# [37] = test system: ACHN; experiment: Growth inhibition of human ACHN cells after 48 hrs by SRB protein assay
# [38] = test system: IGROV-1; experiment: Growth inhibition of human IGROV1 cells after 48 hrs by SRB protein assay; conditions: IGROV-1, 48 h
# [39] = test system: BT-549; experiment: Growth inhibition of human BT549 cells after 48 hrs by SRB protein assay; conditions: BT-549, 48 h
compound,measurement,setting,value
O=C(Cc1csc2nc(-c3ccc(Br)cc3)cn12)N/N=C/c1ccc(O)cc1,GI50,[1],21.4 µM
same,TGI,[1]; read-out: Log TGI (converted),> 100 µM
same,GI50,[2],22.4 µM
same,TGI,[2]; read-out: Log TGI (converted),87.1 µM
same,GI50,[3],14.5 µM
same,TGI,[3]; read-out: Log TGI (converted),29.5 µM
same,GI50,[4],17.8 µM
same,TGI,[4]; read-out: Log TGI (converted),75.9 µM
same,GI50,[5],12.3 µM
same,TGI,[5]; read-out: Log TGI (converted),79.4 µM
same,GI50,[6],57.5 µM
same,TGI,[6]; read-out: Log TGI (converted),> 100 µM
same,GI50,[7],31.6 µM
same,TGI,[7]; read-out: Log TGI (converted),> 100 µM
same,GI50,[8],4.27 µM
same,TGI,[8]; read-out: Log TGI (converted),39.8 µM
same,GI50,[9],52.5 µM
same,TGI,[9]; read-out: Log TGI (converted),> 100 µM
same,GI50,[10],63.1 µM
same,TGI,[10]; read-out: Log TGI (converted),> 100 µM
same,GI50,[11],27.5 µM
same,TGI,[11]; read-out: Log TGI (converted),> 100 µM
same,TGI,[12],40.7 µM
same,GI50,[13],10.2 µM
same,TGI,[13]; read-out: Log TGI (converted),23.4 µM
same,GI50,[14],14.8 µM
same,TGI,[14]; read-out: Log TGI (converted),49 µM
same,GI50,[15],4.17 µM
same,TGI,[15]; read-out: Log TGI (converted),10 µM
same,GI50,[16],12 µM
same,TGI,[16]; read-out: Log TGI (converted),41.7 µM
same,GI50,[17],4.37 µM
same,TGI,[17]; read-out: Log TGI (converted),34.7 µM
same,GI50,[18],7.08 µM
same,TGI,[18]; read-out: Log TGI (converted),25.7 µM
same,GI50,[19],26.3 µM
same,TGI,[19]; read-out: Log TGI (converted),> 100 µM
same,GI50,[20],15.5 µM
same,TGI,[20]; read-out: Log TGI (converted),43.7 µM
same,GI50,[21],60.3 µM
same,TGI,[21]; read-out: Log TGI (converted),100 µM
same,GI50,[22],1.51 µM
same,TGI,[22]; read-out: Log TGI (converted),7.76 µM
same,GI50,[23],11.5 µM
same,TGI,[23]; read-out: Log TGI (converted),66.1 µM
same,GI50,[24],43.7 µM
same,TGI,[24]; read-out: Log TGI (converted),> 100 µM
same,GI50,[25],7.59 µM
same,TGI,[25]; read-out: Log TGI (converted),32.4 µM
same,GI50,[26],10.7 µM
same,TGI,[26]; read-out: Log TGI (converted),34.7 µM
same,GI50,[27],10.7 µM
same,TGI,[27]; read-out: Log TGI (converted),33.9 µM
same,GI50,[28],18.2 µM
same,TGI,[28]; read-out: Log TGI (converted),46.8 µM
same,GI50,[29],< 0.01 µM
same,TGI,[29]; read-out: Log TGI (converted),23.4 µM
same,GI50,[30],57.5 µM
same,TGI,[30]; read-out: Log TGI (converted),> 100 µM
same,GI50,[31],7.08 µM
same,TGI,[31]; read-out: Log TGI (converted),22.4 µM
same,GI50,[32],> 100 µM
same,TGI,[32]; read-out: Log TGI (converted),> 100 µM
same,GI50,[33],9.12 µM
same,TGI,[33]; read-out: Log TGI (converted),23.4 µM
same,GI50,[34],26.3 µM
same,TGI,[34]; read-out: Log TGI (converted),89.1 µM
same,GI50,[35],10.5 µM
same,TGI,[35]; read-out: Log TGI (converted),43.7 µM
same,GI50,[36],19.1 µM
same,TGI,[36]; read-out: Log TGI (converted),69.2 µM
same,GI50,[37],14.8 µM
same,TGI,[37]; read-out: Log TGI (converted),51.3 µM
same,GI50,[38],10.7 µM
same,TGI,[38]; read-out: Log TGI (converted),39.8 µM
same,GI50,[39],13.5 µM
same,TGI,[39]; read-out: Log TGI (converted),56.2 µM
